In PubChem BioAssay AID504322 (Emory University Molecular Libraries Screening Center, 2011):
Active and inactive are the calls of the source. How the calls were made is not given here.

system: CHOP reporter cell assay, percent of control; assay: CHOP reporter inhibitor potency, dose response, cell-based (AID 504322);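 further: CHO cells carrying a CHOP reporter stimulated with tunicamycin to induce ER stress; potency is for inhibition of the stress-induced reporter signal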

SMILES	IC50
COc1cc(C)nc(N2CCCC(C(=O)Nc3cccc(Cl)c3C)C2)n1 (configuration not stated)	6.3 µM (inactive)
O=c1[nH]c(NNC(=S)NC2CCCCC2)nc2c1C1(CCCC1)Cc1ccccc1-2	4.1 µM (inactive)
Fc1ccc(-n2nnnc2-c2cnc(-c3cccs3)nc2C(F)(F)F)cc1	6.67 µM (inactive)
COc1ccc2c(C)nc(Nc3nc(C)c(C)c(=O)[nH]3)nc2c1	9.72 µM (inactive)
CC(C)=CCc1c(O)c(CC=C(C)C)c2c(c1O)C(=O)CC(c1ccc(O)cc1)O2 (configuration not stated)	9.61 µM (inactive)
COc1cc(/C=C(\C#N)c2nc3ccccc3[nH]2)cc(Br)c1OCc1ccc(F)cc1	6.3 µM (inactive)
CCC(C)(C)NC(=O)C(c1cccn1C)N(C(=O)Cn1nnc2ccccc21)c1ccc(F)cc1 (configuration not stated)	> 10 µM (inactive)
O=Nc1ccc(O)c2ncccc12	8.83 µM (inactive)
C=C(C)COc1ccc(-c2n[nH]c(C)c2-c2ccc(Br)cc2)c(O)c1	9.53 µM (inactive)
Cc1cc(C2=NNC(=NC3CC3)SC2)c(C)n1-c1ccccc1	< 0.16 µM (inactive)
Cc1ccccc1N1CCN(C(=O)c2ccc(Oc3ccc(C(F)(F)F)cn3)cc2)CC1	3.48 µM (inactive)
CCOc1ccc(-c2n[nH]c(C)c2Oc2ccc(OC)cc2)c(O)c1	> 10 µM (inactive)
Cc1[nH]c2ccccc2c1/C=N/NC(=O)C1CC1(c1ccccc1)c1ccccc1 (configuration not stated)	> 10 µM (inactive)
COc1cccc(-n2nnnc2S(C)(=O)=O)c1	5.51 µM (inactive)
CCCc1nc2oc(C(=O)c3ccccc3)c(N)c2c2c1COC(C)(C)C2	> 10 µM (inactive)
Cc1ccc(NC(=O)c2ccc(Nc3c([N+](=O)[O-])cc([N+](=O)[O-])cc3[N+](=O)[O-])cc2)cc1	1.81 µM
COc1cc(/C=C(/C#N)c2nc3ccccc3c(=O)[nH]2)ccc1O	> 10 µM (inactive)
CCc1nc2c(cnn2-c2ccc(Cl)cc2)c(=O)n1-c1ccc(OC)cc1	8.14 µM (inactive)
CCOc1cc(CNc2ccc(O)cc2)ccc1OCc1ccc(Cl)cc1Cl	1.72 µM
CCOC(=O)c1c(N)sc(C(O)(C(F)(F)F)C(F)(F)F)c1-c1ccc(Cl)cc1	9.37 µM (inactive)
COC(=O)c1cc(NC(=S)Nc2cc(Cl)cc(Cl)c2)cc(C(=O)OC)c1	> 10 µM (inactive)
Cc1cccc(N2CCN(C(=O)CS(=O)(=O)Cc3nc(-c4ccccc4F)oc3C)CC2C)c1 (configuration not stated)	> 10 µM (inactive)
Cc1ccc(C2(c3ccc(C)cc3)CC2C(=O)Nc2ccc([N+](=O)[O-])cc2O)cc1 (configuration not stated)	8.64 µM (inactive)

SMILES	IC50
CC(C)(C)c1ccc(O)c(N=Cc2cc(Br)ccc2O)c1	9.15 µM (inactive)
FC(F)(F)c1cccc(NC(=S)Nc2ccc(Cl)cc2Cl)c1	6.1 µM (inactive)
COc1cc(/C=C2\COC/C(=C\c3cc(OC)c(OC)c(OC)c3)C2=O)cc(OC)c1OC	3.46 µM
O=S1(=O)C=C(Sc2nnc(-c3ccccc3)o2)c2ccccc21	4.34 µM
CC(C)(C)c1ccc(C(=O)Nc2ccc(CC(=O)O)cc2)o1	< 0.16 µM
Cc1[nH]n(-c2ccccc2)c(=O)c1/C=C1/C=c2ccccc2=N1	9.74 µM (inactive)
Cc1cc(C)c(S(=O)(=O)NCCn2c(C)cc3ccccc32)c(C)c1	9.61 µM (inactive)
CNc1ccc2oc(C[C@H]3O[C@@]4(CC[C@H]3C)O[C@H]([C@H](C)C(=O)c3ccc[nH]3)[C@H](C)C[C@H]4C)nc2c1C(=O)O	< 0.16 µM
O=[N+]([O-])c1ccc(COc2ccc(-c3[nH]ncc3-c3ccccc3)c(O)c2)cc1	9.61 µM (inactive)
CCOc1cc(/C=N\NC(=O)Cc2ccccc2)ccc1OCC(=O)Nc1ccc(C)c(C)c1	6.38 µM (inactive)
Cc1ccc(-c2nn(-c3ccccc3)cc2/C=N/NC(=O)c2ccc(Br)o2)cc1	5.04 µM
Cc1ccc(C(C(=O)NC2CCCCC2)N(C(=O)Cc2c[nH]c3ccccc23)c2ccccc2C)o1 (configuration not stated)	> 10 µM (inactive)
O=C(Nc1ccc(C(O)(C(F)(F)F)C(F)(F)F)cc1)c1ccc(Cl)c([N+](=O)[O-])c1	4.58 µM (inactive)
COc1ccccc1C(=O)Oc1ccc(C(C)C)cc1	> 10 µM (inactive)
Cc1cc(C(C)(C)C)oc1C(=O)N1CCN(C(=O)c2oc(C(C)(C)C)cc2C)CC1	9.99 µM (inactive)
CN1CC(c2ccccc2)C2(SC(=S)N(Cc3ccco3)C2=O)C12C(=O)Nc1ccccc12 (configuration not stated)	> 10 µM (inactive)
CC1CCc2c(sc3ncn(CC(=O)N=Nc4c(O)[nH]c5ccccc45)c(=O)c23)C1 (configuration not stated)	7.42 µM (inactive)
CCCC(=O)N1CCN(c2ccc(NC(=O)c3cc4ccccc4o3)cc2Cl)CC1	5.4 µM (inactive)
Cc1nn(Cc2c(Cl)cccc2Cl)c(C)c1NC(=O)c1cc(C(C)C)on1	> 10 µM (inactive)
COc1ccc(OCc2cccc(C(=O)O)c2)cc1	0.87 µM
CCCOc1ccc(N2C(=O)CC(SC(=NCC)Nc3cccc(F)c3)C2=O)cc1 (configuration not stated)	8.9 µM (inactive)
C#CC(=O)N(c1cc(OC)ccc1OC)C(C(=O)NC1CCCC1)c1cccs1 (configuration not stated)	> 10 µM (inactive)
O=C(c1nnsc1S(=O)(=O)c1ccc(Cl)cc1)N1CCOCC1	9.43 µM (inactive)

SMILES	IC50
CCCCCC1CC(CC(=O)Nc2ccc([N+](=O)[O-])cc2)C(=O)O1 (configuration not stated)	9.17 µM (inactive)
O=C1c2ccccc2C(=O)c2c1oc(C(F)(F)F)c2C(=O)c1ccccc1	9.61 µM (inactive)
COc1ccc(Cn2c(C)c(C)c(C#N)c2NC(=O)Nc2ccc(Cl)cc2)cc1	7.29 µM (inactive)
CCC(=O)N1N=C(c2c(-c3ccccc3)c3cc(Cl)ccc3[nH]c2=O)CC1c1ccco1 (configuration not stated)	8.96 µM (inactive)
Cc1ccc(N=Cc2cc3c(cc2O)OC(N)=C(C#N)C3c2ccccc2)cc1 (configuration not stated)	> 10 µM (inactive)
CCCCCCOC(=O)Nc1ccc(S(=O)(=O)Nc2cccc([N+](=O)[O-])c2)cc1	> 10 µM (inactive)
COc1ccc(C(=O)/C=C/C(=O)N(CC(=O)NC2CCCCC2)Cc2cccs2)c(O)c1	9.94 µM (inactive)
CC[C@@H](C)[C@H](NC(=O)OC(C)(C)C)c1nnc(S(=O)(=O)Cc2cc(C)ccc2C)o1	> 10 µM (inactive)
COc1ccccc1C(=O)NC(=Nc1nc2ccccc2o1)NC(=O)c1ccccc1OC	9.43 µM (inactive)
Cc1sc2ncnc(N3CCCCC3C)c2c1C (configuration not stated)	> 10 µM (inactive)
O=C1C(=O)c2ccc(-c3ccccc3)cc2-c2ccccc21	3.36 µM
O=C(CCl)Nc1cccc(-c2cnc3ccccc3n2)c1	6.64 µM (inactive)
Cc1cccc(NCC(=O)N/N=C\c2cccc(Oc3ccccc3)c2)c1	8.02 µM (inactive)
Cc1ccc(N(c2ncnc(N)c2[N+](=O)[O-])C2CCCCC2)cc1	> 10 µM (inactive)
O=C(Nc1ccc(C(F)(F)F)cc1)c1cc(-c2cccnc2)nc2ccc(Br)cc12	3.59 µM
CC(C)(C)OC(=O)N[C@@H](Cc1ccccc1)c1nnc(S(=O)(=O)Cc2ccccc2)o1	5.59 µM (inactive)
CCCCCc1c(C)nc(NCc2ccccc2)[nH]c1=O	3.65 µM
O=C(CN1C(=O)c2ccccc2S1(=O)=O)c1ccc2c(c1)OCCCO2	0.34 µM (inactive)
NC(=O)c1ccc(C(F)(F)F)n(Cc2ccc(Cl)cc2)c1=O	9.05 µM (inactive)
CCOC(=O)c1c(C(C)(C)C)oc2ccc(O)cc12	9.38 µM (inactive)
COc1ccc(OCc2cccc(C(=O)Nn3cc([N+](=O)[O-])cn3)c2)cc1	0.85 µM
